Laboratory results as given in patent US20260001928A1 (CORTERIA PHARMACEUTICALS, priority 2022, published 2026).
pEC50: −log10 of the molar value. *1 amine or outer side, *2 acyl side, *3 side chain or, on linkers, in order; H or OH if unused. Where a SMILES comes first, the peptide text is derived from it. Side-chain parts run from the residue outwards. [ ]: non-standard residue; d: D form. The star is where a group is joined. C20 diacid = O=C(O)CCCCCCCCCCCCCCCCCCC(=O)*; C18 diacid = O=C(O)CCCCCCCCCCCCCCCCC(=O)*; γGlu = O=C(O)[C@H](CCC(=O)[*:2])N[*:1]; NMeI = CC[C@H](C)[C@H](NC)C(=O)O; AEEA = NCCOCCOCC(=O)O; Aib = CC(C)(N)C(=O)O

Key:
[1] = In vitro plasma stability, human plasma; format: in vitro ADME; parameters: dose or concentration left out as unconfirmed; details: Human PLM, 37° C.
Method: In vitro plasma metabolic stability was studied in male Sprague Dawley rats and human. Test compounds were incubated at 3 M for 2 hours at 37° C. At each time point (0, 0.25, 1 and 2 h), samples were prepared for analysis by means of a single step protein precipitation technique by adding 150 μL of ethanol, 0.1% formic acid to 50 μL aliquots of plasma. Samples were mixed by vortex for homogeneity and then subjected to centrifugation at 14000 rpm for 15 min. The supernatant (100 μL) was collected, diluted with 100 μL of water, 0.1% formic acid and analyzed by LC-HRMS (TripleTOF 6600+, AB Sciex). For each test compound, the area ratios at each time point were compared to the 0 h area ratio and converted to a percentage remaining.

[2] = tested on: Sprague Dawley rats; experiment: Effect on systolic blood pressure, telemetry in Sprague Dawley rats; format: in vivo, rat; details: 0.1 mg/kg SC; for Systolic blood pressure (Mean) % change from baseline, 8 h / Systolic blood pressure (Mean) % change from baseline, 12 h / Systolic blood pressure (Mean) % change from baseline, 24 h: n=2; for Duration of action: last time point with an effect on BP still observed
Procedure, shortened: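 Sprague Dawley rats with abdominal-aorta telemetry catheters, recovered ≥10 days, received 0.1 mg/kg SC of compound or vehicle. Systolic pressure recorded 1 h pre-dose as baseline, then continuously up to 48 hours, expressed as % change from baseline; duration of action is last time point with a BP effect (n=2).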

[3] = Chemical stability in buffer (pH 7.4 / pH 4.5), % purity loss; format: physicochemical; details: 40° C. vs 5° C., 14 or 28 days; for Buffer stability pH 7.4 % purity loss: 100 mM phosphate buffer pH 7.4; for Buffer stability pH 4.5 % purity loss: 100 mM acetate buffer pH 4.5
Procedure, shortened: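 Compounds dissolved at 10 mg/mL target in 100 mM phosphate (pH 7.4) or 100 mM acetate (pH 4.5) buffer for 1 h at room temperature, then centrifuged. Diluted supernatant stored at 5 °C or 40 °C for 14 or 28 days; % purity loss by LC-UV.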

[4] = biological target: T1, human CRF2a receptor (Homo sapiens, UniProt Q13324); experiment: Activity at human CRF2a receptor, cAMP functional assay in TeloHEAC cells; format: cell-based; details: TeloHEAC cells stably expressing human CRF2a receptor, relative to urocortin 2 (100 nM = 100%)
T1 construct: expressed in transfected cells; host or cells: TeloHEAC cells
T1 sequence (Q13324 1-411): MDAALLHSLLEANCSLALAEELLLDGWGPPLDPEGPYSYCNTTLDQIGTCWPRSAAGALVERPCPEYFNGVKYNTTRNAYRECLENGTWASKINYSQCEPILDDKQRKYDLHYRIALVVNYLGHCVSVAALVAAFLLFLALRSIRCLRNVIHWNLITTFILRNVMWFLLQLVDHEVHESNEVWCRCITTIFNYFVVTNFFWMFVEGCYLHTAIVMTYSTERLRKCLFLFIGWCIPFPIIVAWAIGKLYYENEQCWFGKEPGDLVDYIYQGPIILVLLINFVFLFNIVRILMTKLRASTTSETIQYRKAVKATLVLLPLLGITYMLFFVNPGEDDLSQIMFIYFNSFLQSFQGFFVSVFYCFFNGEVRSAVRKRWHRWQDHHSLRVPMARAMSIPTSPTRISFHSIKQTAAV
Procedure, shortened: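 cAMP accumulation was measured by HTRF 665/620 nm ratio after 30 min at 37° C compound exposure (16 twofold dilutions) of CRF2a-expressing TeloHEAC cells, 10000/well, in HEPES-buffered HBSS plus IBMX. Activity was normalised to urocortin 2 at 100 nM (100%), and EC50 was the concentration giving half-maximal activation.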

[5] = In vitro subcutaneous tissue supernatant (SCts) stability and metabolite identification, rat; format: in vitro ADME; parameters: remaining at 2 h: dose or concentration left out as unconfirmed; details: male, Sprague Dawley; rat subcutaneous tissue supernatant (SCts), 37° C, 2 h
[6] = Pharmacokinetics in male Sprague Dawley rats after subcutaneous administration; format: in vivo; details: plasma, rat, SC, 0.1 mg/kg
[7] = In vitro plasma stability, rat plasma; format: in vitro ADME; parameters: remaining at 2 h: dose or concentration left out as unconfirmed; details: Rat PLM, 37° C.

CC[C@H](C)[C@H](NC)C(=O)N[C@H](C(=O)N[C@@H](CC(C)C)C(=O)N[C@@H](CO)C(=O)N[C@@H](CC(C)C)C(=O)N[C@@H](CC(=O)O)C(=O)N[C@@H](C(=O)N1CCC[C@H]1C(=O)N[C@H](C(=O)N[C@@H](CCCCN)C(=O)N[C@@H](CC(C)C)C(=O)N[C@@H](CCCCNC(=O)CC[C@H](NC(=O)CCCCCCCCCCCCCCCCCCC(=O)O)C(=O)O)C(=O)N[C@@H](CCCCN)C(=O)N[C@H](C(=O)N[C@@H](CC(C)C)C(=O)N[C@@H](CC(C)C)C(=O)N[C@@H](CCC(=O)O)C(=O)N[C@@H](CCC(N)=O)C(=O)N[C@@H](CCC(=O)O)C(=O)N[C@@H](CCCCN)C(=O)N[C@@H](CCC(N)=O)C(=O)N[C@@H](CCCCN)C(=O)N[C@@H](CCC(=O)O)C(=O)N[C@@H](CCC(N)=O)C(=O)N[C@@H](CCCNC(=N)N)C(=O)N[C@@H](CCC(=O)O)C(=O)N[C@@H](CCC(N)=O)C(=O)N[C@@H](C)C(=O)N[C@@H](CCC(=O)O)C(=O)N[C@H](C(=O)N[C@@H](CC(N)=O)C(=O)NC(C)(C)C(=O)N[C@@H](CCC(N)=O)C(=O)N[C@H](C(=O)N[C@@H](CC(C)C)C(=O)N[C@@H](C)C(=O)N[C@@H](CCC(N)=O)C(=O)N[C@H](C(N)=O)C(C)C)[C@@H](C)CC)[C@@H](C)O)[C@@H](C)CC)[C@@H](C)CC)C(C)C)C(C)C [compound 218] (H-[NMeI]VLSLD[dV]PIKLK([γGlu-C20 diacid])KILLEQEKQKEQREQAETN[Aib]QILAQV-NH2)
remaining at 2 h [1]: 99% | Systolic blood pressure (Mean) % change from baseline, 8 h [2]: −13% | Systolic blood pressure (Mean) % change from baseline, 12 h [2]: −17% | Systolic blood pressure (Mean) % change from baseline, 24 h [2]: −16% | Duration of action [2]: >24 h | Buffer stability pH 7.4 % purity loss [3]: 0.0/Not Tested % | pEC50 [4]: 9.96 | remaining at 2 h [5]: 71% | AUC(0-t) [6]: 4120 ng·h/mL | Cmax [6]: 115 ng/mL | remaining at 2 h ([7]; male, Sprague Dawley, plasma): 109%

CC[C@H](C)[C@H](NC(C)=O)C(=O)N[C@H](C(=O)N[C@@H](CC(C)C)C(=O)N[C@@H](CO)C(=O)N[C@@H](CC(C)C)C(=O)N[C@@H](CC(=O)O)C(=O)N[C@@H](C(=O)N1CCC[C@H]1C(=O)N[C@H](C(=O)N[C@@H](CCCCN)C(=O)N[C@@H](CC(C)C)C(=O)N[C@@H](CCCCNC(=O)CC[C@H](NC(=O)CCCCCCCCCCCCCCCCCCC(=O)O)C(=O)O)C(=O)N[C@@H](CCCCN)C(=O)N[C@H](C(=O)N[C@@H](CC(C)C)C(=O)N[C@@H](CC(C)C)C(=O)N[C@@H](CCC(=O)O)C(=O)N[C@@H](CCC(N)=O)C(=O)N[C@@H](CCC(=O)O)C(=O)N[C@@H](CCCCN)C(=O)N[C@@H](CCC(N)=O)C(=O)N[C@@H](CCCCN)C(=O)N[C@@H](CCCCN)C(=O)N[C@@H](CCC(N)=O)C(=O)N[C@@H](CCCNC(=N)N)C(=O)N[C@@H](CCC(=O)O)C(=O)N[C@@H](CCC(N)=O)C(=O)N[C@@H](C)C(=O)N[C@@H](CCC(=O)O)C(=O)N[C@H](C(=O)N[C@@H](CC(N)=O)C(=O)NC(C)(C)C(=O)N[C@@H](CCC(N)=O)C(=O)N[C@H](C(=O)N[C@@H](CC(C)C)C(=O)N[C@@H](C)C(=O)N[C@@H](CCC(N)=O)C(=O)N[C@H](C(N)=O)C(C)C)[C@@H](C)CC)[C@@H](C)O)[C@@H](C)CC)[C@@H](C)CC)C(C)C)C(C)C [compound 206] (Ac-IVLSLD[dV]PIKLK([γGlu-C20 diacid])KILLEQEKQKKQREQAETN[Aib]QILAQV-NH2)
Systolic blood pressure (Mean) % change from baseline, 8 h [2]: −12% | Systolic blood pressure (Mean) % change from baseline, 12 h [2]: −16% | Systolic blood pressure (Mean) % change from baseline, 24 h [2]: −13% | Duration of action [2]: >24 h | Buffer stability pH 4.5 % purity loss [3]: 0.0/0.0 ^ % | Buffer stability pH 7.4 % purity loss [3]: 0.0/0.0 ^ % | pEC50 [4]: 9.96 | remaining at 2 h [5]: 73% | AUC(0-t) [6]: 5770 ng·h/mL | Cmax [6]: 197 ng/mL

CC[C@H](C)[C@H](NC)C(=O)N[C@H](C(=O)N[C@@H](CC(C)C)C(=O)N[C@@H](CO)C(=O)N[C@@H](CC(C)C)C(=O)N[C@@H](CC(=O)O)C(=O)N[C@@H](C(=O)N1CCC[C@H]1C(=O)N[C@H](C(=O)N[C@@H](CCCCN)C(=O)N[C@@H](CC(C)C)C(=O)N[C@@H](CCCCNC(=O)COCCOCCNC(=O)COCCOCCNC(=O)CC[C@H](NC(=O)CCCCCCCCCCCCCCCCC(=O)O)C(=O)O)C(=O)N[C@@H](CCCCN)C(=O)N[C@H](C(=O)N[C@@H](CC(C)C)C(=O)N[C@@H](CC(C)C)C(=O)N[C@@H](CCC(=O)O)C(=O)N[C@@H](CCC(N)=O)C(=O)N[C@@H](CCC(=O)O)C(=O)N[C@@H](CCCCN)C(=O)N[C@@H](CCC(N)=O)C(=O)N[C@@H](CCCCN)C(=O)N[C@@H](CCCCN)C(=O)N[C@@H](CCC(N)=O)C(=O)N[C@@H](CCCNC(=N)N)C(=O)N[C@@H](CCC(=O)O)C(=O)N[C@@H](CCC(N)=O)C(=O)N[C@@H](C)C(=O)N[C@@H](CCC(=O)O)C(=O)N[C@H](C(=O)N[C@@H](CC(N)=O)C(=O)NC(C)(C)C(=O)N[C@@H](CCC(N)=O)C(=O)N[C@H](C(=O)N[C@@H](CC(C)C)C(=O)N[C@@H](C)C(=O)N[C@@H](CCC(N)=O)C(=O)N[C@H](C(N)=O)C(C)C)[C@@H](C)CC)[C@@H](C)O)[C@@H](C)CC)[C@@H](C)CC)C(C)C)C(C)C [compound 118] (H-[NMeI]VLSLD[dV]PIKLK([AEEA-AEEA-γGlu-C18 diacid])KILLEQEKQKKQREQAETN[Aib]QILAQV-NH2)
remaining at 2 h [1]: 91% | Systolic blood pressure (Mean) % change from baseline, 8 h [2]: −24% | Systolic blood pressure (Mean) % change from baseline, 12 h [2]: −17% | Systolic blood pressure (Mean) % change from baseline, 24 h [2]: −4% | Duration of action [2]: >24 h | Buffer stability pH 4.5 % purity loss [3]: 0/0 ^ % | Buffer stability pH 7.4 % purity loss [3]: 0/0 ^ % | pEC50 [4]: 9.22 | AUC(0-t) [6]: 3540 ng·h/mL | Cmax [6]: 225 ng/mL | % remaining at 2 hours [7]: 128%

CC[C@H](C)[C@H](NC)C(=O)N[C@H](C(=O)N[C@@H](CC(C)C)C(=O)N[C@@H](CO)C(=O)N[C@@H](CC(C)C)C(=O)N[C@@H](CC(=O)O)C(=O)N[C@@H](C(=O)N1CCC[C@H]1C(=O)N[C@H](C(=O)N[C@@H](CCCCN)C(=O)N[C@@H](CC(C)C)C(=O)N[C@@H](CCCCNC(=O)CC[C@H](NC(=O)CCCCCCCCCCCCCCCCCCC(=O)O)C(=O)O)C(=O)N[C@@H](CCCCN)C(=O)N[C@H](C(=O)N[C@@H](CC(C)C)C(=O)N[C@@H](CC(C)C)C(=O)N[C@@H](CCC(=O)O)C(=O)N[C@@H](CCC(N)=O)C(=O)N[C@@H](CCC(=O)O)C(=O)N[C@@H](CCCCN)C(=O)N[C@@H](CCC(N)=O)C(=O)N[C@@H](CCCCN)C(=O)NC(C)(C)C(=O)N[C@@H](CCC(N)=O)C(=O)N[C@@H](CCCNC(=N)N)C(=O)N[C@@H](CCC(=O)O)C(=O)N[C@@H](CCC(N)=O)C(=O)N[C@@H](C)C(=O)N[C@@H](CCC(=O)O)C(=O)N[C@H](C(=O)N[C@@H](CC(N)=O)C(=O)NC(C)(C)C(=O)N[C@@H](CCC(N)=O)C(=O)N[C@H](C(=O)N[C@@H](CC(C)C)C(=O)N[C@@H](C)C(=O)N[C@@H](CCC(N)=O)C(=O)N[C@H](C(N)=O)C(C)C)[C@@H](C)CC)[C@@H](C)O)[C@@H](C)CC)[C@@H](C)CC)C(C)C)C(C)C [compound 215] (H-[NMeI]VLSLD[dV]PIKLK([γGlu-C20 diacid])KILLEQEKQK[Aib]QREQAETN[Aib]QILAQV-NH2)
Systolic blood pressure (Mean) % change from baseline, 8 h [2]: −12% | Systolic blood pressure (Mean) % change from baseline, 12 h [2]: −14% | Systolic blood pressure (Mean) % change from baseline, 24 h [2]: −16% | Duration of action [2]: >24 h | Buffer stability pH 7.4 % purity loss [3]: 0.0/Not Tested % | pEC50 [4]: 9.92 | remaining at 2 h [5]: 84% | AUC(0-t) [6]: 9410 ng·h/mL | Cmax [6]: 325 ng/mL
